These results are taken from US20060211687A1, “Potassium salt of an hiv integrase inhibitor” (priority 2003, published 2006).

A short description of data set [1]: solubility in ethanol containing water. It is filed as physicochemical. The settings on record: ethanol containing 1 to 5 vol. % and 10 vol% water. As to the method: Experiments have been conducted in which the Compound A K salt ethanolate of the present invention was slurried in ethanol containing 1, 2, 3, 4, 5 and 10 vol. % water, followed by measurement of the XRPD patterns of the collected crystals. In addition, the solubility of the Compound A K salt ethanolate was also determined for the 1 to 5 vol. % and 10 vol% water in ethanol solutions. […] Accordingly, it is believed that the crystalline ethanolate hydrate material of the present invention exists as a water-ethanol isomorphic co-solvate. […] In accordance with these experimental results, the crystalline potassium salt ethanolate of Compound A of the invention can contain water as a co-solvate up to a maximum water content, beyond which the crystalline salt (as shown by the XRPD and solubility results described above) changes to another form.

Data set [2] can be described thus: pharmacokinetics in animal models. Format: in vivo. The conditions noted are these: over the free base.
Data set [3] in a line: oral bioavailability and pharmacokinetics in dogs. It is filed as in vivo. The settings on record: relative to amorphous and crystalline Compound A.
A further data set can be described thus: hygroscopicity. The conditions noted are these: compared with the sodium salt of Compound A. Format: physicochemical.
A short description of another data set: stability of the salt. It is filed as physicochemical. The settings on record: compared with the sodium salt of Compound A.
A short description of data set [4]: oral bioavailability and pharmacokinetics in rats. Format: in vivo. The conditions noted are these: relative to amorphous and crystalline Compound A.
Another data set in a line: solubility in water. Format: physicochemical. The settings on record: compared to the free base.
The subject of data set [5] is HIV infection of T-lymphoid cells. Briefly: inhibition of acute HIV infection of T-lymphoid cells. Format: cell-based. The settings on record: in accordance with Vacca et al.
Another data set has as its target T1, HIV integrase (Human immunodeficiency virus type 1 group M subtype B, UniProt P04585).
T1 construct: strand transfer is catalyzed by recombinant integrase
Briefly: integrase inhibition assay in which strand transfer is catalyzed by recombinant integrase. It is filed as biochemical. The settings on record: assay of Example 193 of WO 02/30930. The text has this:
Compound A is an inhibitor of HIV integrase. […] The strand transfer assay is described in Example 193 of WO 02/30930.

Setting [6] is: listed as crystalline potassium salt of Compound A.

`CNC(=O)c1cc(F)ccc1CNC(=O)c1nc(N2CCCCS2(=O)=O)c2cccnc2c1[O-].[K+]` [Salt A1, Potassium 5-(1,1-dioxido-1,2-thiazinan-2-yl)-7-[({4-fluoro-2-[(methylamino)carbonyl]benzyl}amino)carbonyl]-1,6-naphthyridin-8-olate]: in [1], the solubility trend entry was “increasing solubility from 1 to 5 vol % reversed to lower solubility at 10 vol. %”.

For `CNC(=O)c1cc(F)ccc1CNC(=O)c1nc(N2CCCCS2(=O)=O)c2cccnc2c1[O-].[K+]` [potassium salt of Compound A, Potassium 5-(1,1-dioxido-1,2-thiazinan-2-yl)-7-[({4-fluoro-2-[(methylamino)-carbonyl]benzyl}amino)carbonyl]-1,6-naphthyridin-8-olate], the pharmacokinetics result in data set [2] was “improved”. Besides, the AUC entry in data set [3] and in data set [4] was “improved” in each case. The Cmax result in [3] and in [4] was “improved” throughout. Moreover, the oral bioavailability result in data set [3] and in [4] was “superior” throughout. Further, the hygroscopicity result in the data set “hygroscopicity” is on record as “significantly less hygroscopic”; in “hygroscopicity” (setting [6]), “less”. The stability result in “stability of the salt” is given as “more stable”; in the data set “stability of the salt” (setting [6]), “improved”. The solubility in water result in “solubility in water” is given as “significantly more soluble”.

Regarding `CNC(=O)c1cc(F)ccc1CNC(=O)c1nc(N2CCCCS2(=O)=O)c2cccnc2c1O` [Compound A, 5-(1,1-dioxido-1,2-thiazinan-2-yl)-N-{4-fluoro-2-[(methylamino)carbonyl]benzyl}-8-hydroxy-1,6-naphthyridine-7-carboxamide], in data set [5], the “inhibition of acute HIV infection of T-lymphoid cells” value is reported as “active”. Also, the “inhibition of HIV integrase (strand transfer)” value at HIV integrase is on record as “potent inhibitor”.
